Test [1] relates to Orlando insecticide-susceptible strain of Ae. aegypti (female mosquitoes). The test is described as follows: Glass tube spatial repellency assay. Format: in vivo, Aedes aegypti. Conditions: for repellency EC50 (+TFA): applied as mixture with TFA (50 μg/cm^2); for repellency EC50 (+TFA) / repellency EC50 / effect of TFA on repellency, applied as mixture: 1 hr; for repellency EC50 / spatial repellency in screening / repellency at highest concentration tested (words): compound alone; for synergist ratio SR (EC50 compound alone/EC50 compound+TFA): TFA 50 μg/cm^2 as mixture; for effect of TFA on repellency, applied as mixture: TFA 50 μg/cm^2 + EC20 of test compound (permethrin 30 μg/cm^2); for effect of TFA on repellency, applied side-by-side: TFA 50 μg/cm^2 side-by-side, DEET 18 μg/cm^2; for synergism of repellency with citronella: citronella at its EC20 (20 μg/cm^2); for EC50 (95% CL), repellency of TFA esters: 1 hr exposures, Ae. aegypti females; for spatial repellency in screening: 100 μg/cm^2, 1 hr exposure; for repellency at highest concentration tested (words): 1-2 mg/cm^2; for 15 min repellency ratio / 30 min repellency ratio / 1 hr repellency ratio: horizontal tube, 0.5=0% repellency, 0=100% repellency. As to the method:
The following assay was conducted according to the procedures of Jiang et al., 2019 (Jiang S., Yang L, and Bloomquist J (2019) High-throughput screening method for evaluating spatial repellency and vapor toxicity to mosquitoes. Med. Vet. Entomol.). For assessing behavioral repellency (FIG. 1), sixteen female Aedes aegypti mosquitoes were transferred to a glass tube (12.5 cm long, 2.5 cm outer diameter) with the ends covered with netting. Metofluthrin, bifenthrin, permethrin, pyrethrum, transfluthrin, deltamethrin, esfenvalerate, metofluthrin acid, bifenthrin acid, phenothrin acid, transchryanthemic acid, transfluthrin acid, deltamethrin acid, and fenvalerate acid were each dissolved in 1 mL of acetone and serial dilutions ranging from 30-0.01 μg/ml were made. Circular filter papers (5 cm^2) were saturated with 50 μL of each concentration and allowed 10 min for solvent evaporation. The filter papers were then placed in clear conical polypropylene caps and fixed to the end of the glass tubes. The netting prevented mosquito contact with the filter paper. Tubes were then aligned with a mark denoting the midline and the proportion of mosquitoes on the chemically treated side was scored at 15, 30, and 60 min. At the end of the test, the tube was placed in a cage and the ability of the mosquitoes to fly out of the tube was assessed for 30 min. […] This post-test evaluated whether any non-responding mosquitoes (not repelled) was due to intoxication or disorientation from the test chemical. For vapor toxicity, the assay was identical, except that mosquitoes were kept in the tube for 24 hr without the post-test at 1 hr, and the mortality was recorded at 24 hr.

Another test has as its system female Ae. aegypti. Nature of the test: Human arm bite protection assay. Format: in vivo, Aedes aegypti. The following applies: for MED values Female 10: as E30, volunteer one; for MED values Female 9: as E30, volunteer two; for MED Mean: mean of three human volunteers; for MED values Male 4: minimum amount preventing 99% of bites, treated cloth patch, 1 min in cage, mixtures with TFA 0.047 or TCA 0.094 mg/cm^2. As to the method:
A human bite protection assay was performed according to see if the repellency observed in glass tubes extended to bite protection. The assay was run in accordance with that of Tsikolia et al. (Tsikolia M, Bernier UR, Coy M, Chalaire K, Becnel J, Agramonte N, Tabanca N, Wedge D, Clark G, Linthicum K, Swale D, and J. R. Bloomquist J (2013) Insecticidal and fungicidal properties of novel trifluoromethylphenyl amides. Pestic. Biochem. Physiol. 107, 138-147). Treated cloth patches were worn by human volunteers and the number of blood fed mosquitoes was determined after 1 min spent in a cage with 500 (±10%) female Ae. aegypti. Minimum Effective Dosage (MED in mg/cm^2) is the minimum amount required to prevent 99% of bites in three human volunteers (UF IRB #201602334). Synergist ratio (SR)=MED chemical alone/MED chemical+TFA (0.047 mg/cm^2) or TCA (0.094 mg/cm^2).

Entries after “also recorded” stand apart in the source; their conditions may differ. Structures can show the parent of a compound that is named as a salt. Some results are limits rather than exact numbers.

Consider `CCCCCCCCCC(C)=O` [2-undecanone], for which, in test [1], the “repellency EC50 (+TFA)” value is 5.1 μg/cm^2 and the “repellency EC50” value turned out to be 59 μg/cm^2. Further, in test [1] (repellency), the “synergist ratio SR (EC50 compound alone/EC50 compound+TFA)” value (from here on “synergist ratio SR”) is on record as 11.6. Besides, in the test with female Ae. aegypti, the “MED values Female 10” value is on record as 0.375 mg/cm^2, the “MED values Female 9” value is on record as 0.187 mg/cm^2, the “MED Mean” value was 0.219 mg/cm^2 and the “MED values Male 4” value was 0.094 mg/cm^2.
Turning to `O=Cc1cccc(Oc2ccccc2)c1` [3-phenoxybenzaldehyde], in the test on female Ae. aegypti, the “MED values Female 10” value came to 0.750 mg/cm^2, the “MED values Female 9” value is on record as >0.75 mg/cm^2, the “MED Mean” value is reported as >0.75 mg/cm^2 and the “MED values Male 4” value was >0.75 mg/cm^2.
Take `CCN(CC)C(=O)c1cccc(C)c1` [DEET, N,N-diethyl-m-toluamide, reference compound]: in test [1], the “effect of TFA on repellency, applied as mixture” value (from here on “effect of TFA … as mixture”) was “no statistically significant effect”; the “effect of TFA on repellency, applied side-by-side” value is “synergistic effect was observed”; the “repellency EC50 (+TFA)” value was found to be 26 μg/cm^2; the “synergism of repellency with citronella” value is recorded as “did not synergize”. The “repellency EC50” value in test [1] was 39 μg/cm^2. The “repellency EC50 +TFA(S)” value in test [1] (TFA (50 μg/cm^2) applied side-by-side on halves of the filter) stood at 8.1 μg/cm^2. Besides, in test [1] (repellency), the “synergist ratio SR” value amounted to 1.5. In test [1] (repellency, TFA 50 μg/cm^2 side-by-side treatment), the “fold decrease of EC50 by TFA side-by-side” value is listed as ~5 fold. Besides, in the test on female Ae. aegypti, the “MED values Female 10” value turned out to be 0.011 mg/cm^2, the “MED values Female 9” value is listed as 0.011 mg/cm^2, the “MED Mean” value is listed as 0.011 mg/cm^2 and the “MED values Male 4” value is on record as 0.011 mg/cm^2.
As to `CCCCCOC(=O)[C@@H]1[C@@H](C=C(Cl)Cl)C1(C)C` [GMR 120, nPentyl (1R,3S)-3-(2,2-dichlorovinyl)-2,2-dimethylcyclopropane-1-carboxylate], the “EC50 (95% CL), repellency of TFA esters” value in test [1] is given as 10 (7-15) μg/cm^2.
With `CC1(C)[C@H](C=C(Cl)Cl)[C@H]1C(=O)OC1CCCC1` [GMR 124, Cyclopentyl (1R,3S)-3-(2,2-dichlorovinyl)-2,2-dimethylcyclopropane-1-carboxylate], in test [1], the “EC50 (95% CL), repellency of TFA esters” value is given as 11 (8-15) μg/cm^2.
The same measure, in the same setting: to `CC1(C)[C@H](C=C(Cl)Cl)[C@H]1C(=O)OC1CCC1` [GMR 125, Cyclobutyl (1R,3S)-3-(2,2-dichlorovinyl)-2,2-dimethylcyclopropane-1-carboxylate] belongs 17 (11-27) μg/cm^2.
As to `CC1(C)[C@H](C=C(Cl)Cl)[C@H]1C(=O)OC1CC1` [GMR 126, Cyclopropyl (1R,3S)-3-(2,2-dichlorovinyl)-2,2-dimethylcyclopropane-1-carboxylate], in test [1], the “EC50 (95% CL), repellency of TFA esters” value is on record as 8.5 (5-13) μg/cm^2; the “repellency EC50 (+TFA)” value was found to be 0.35 μg/cm^2; the “repellency EC50” value is on record as 8.5 μg/cm^2. In addition, the “synergist ratio SR” value in test [1] (repellency) was determined as 24.
For `CCCCN(CCC(=O)OCC)C(C)=O` [IR3535, ethyl butylacetylaminopropionate], the “effect of TFA … as mixture” value in test [1] was “no statistically significant effect”. In addition, in the test on female Ae. aegypti, the “MED values Female 10” value was 0.047 mg/cm^2, the “MED values Female 9” value stood at 0.047 mg/cm^2, the “MED Mean” value is on record as 0.063 mg/cm^2 and the “MED values Male 4” value is given as 0.094 mg/cm^2.
As for `OCc1c(F)c(F)cc(F)c1F` [TF-OH, transfluthrin alcohol], in test [1], the “spatial repellency in screening” value was “significant repellency”, the “repellency EC50 (+TFA)” value worked out at 41 μg/cm^2 and the “repellency EC50” value was found to be 80 μg/cm^2. In addition, the “synergist ratio SR” value in test [1] (repellency) is given as “about 2”.
Regarding `CC1(C)C(C=C(Cl)Cl)C1C(=O)O` (stereo not drawn) [TFA, transfluthrin acid], the “repellency of TFA by itself” value in test [1] (TFA alone, 50 μg/cm^2 and higher) is “no repellent activity by itself; also recorded: no effect; also recorded: inactive by itself”. Moreover, the “synergism of repellency with citronella” value in test [1] is recorded as “strong positive response; also recorded: Synergistic interactions were discovered”. For the same compound, in the test with female Ae. aegypti, the “MED values Female 10” value amounted to 0.094 mg/cm^2, the “MED values Female 9” value was determined as 0.187 mg/cm^2, the “MED Mean” value turned out to be 0.156 mg/cm^2 and the “MED values Male 4” value was found to be 0.187 mg/cm^2.
Consider `CCc1ccc(NC(=O)CSc2nnc(-c3cccnc3)n2CC)cc1` [VUAA-1, 2-(4-Ethyl-5-(pyridin-3-yl)-4H-1,2,4-triazol-3-ylthio)-N-(4-ethylphenyl)acetamide, reference compound], for which, in test [1], the “effect of TFA on repellency, applied side-by-side” value is “synergism disappeared”; the “repellency EC50 (+TFA)” value was determined as 30 μg/cm^2; the “repellency at highest concentration tested (words)” value (“repellency … (words)” for short) was “inactive; also recorded: repellency was not observed”; the “repellency EC50” value is reported as >2000 μg/cm^2. The “repellency EC50 +citronella” value in test [1] (co-applied citronella at its EC20 (20 μg/cm^2)) was found to be 34 μg/cm^2. Besides, in test [1] (repellency), the “synergist ratio SR” value was >67.
Regarding `O=Cc1ccccc1` [benzaldehyde, reference compound], in test [1], the “repellency EC50 (+TFA)” value worked out at 15 μg/cm^2 and the “repellency EC50” value turned out to be 118 μg/cm^2. Besides, in test [1] (repellency), the “synergist ratio SR” value amounted to 8.
For the compound `Cc1c(COC(=O)C2C(/C=C(/Cl)C(F)(F)F)C2(C)C)cccc1-c1ccccc1` (stereo not drawn) [bifenthrin, Bifenthrin, reference compound], the “spatial repellency in screening” value in test [1] is “some repellency at high exposure”.
The same measure, in the same setting: to `CC1(C)[C@H](C(=O)O[C@H](C#N)c2cccc(Oc3ccccc3)c2)[C@@H]1C=C(Br)Br` [deltamethrin, Deltamethrin, reference compound] belongs “inactive as vapor phase repellents”.
Regarding `Cc1cccc(C(N)=O)c1` [m-toluamide], in test [1] (10 μg/cm^2), the “15 min repellency ratio” value is 0.50, the “30 min repellency ratio” value was found to be 0.50 and the “1 hr repellency ratio” value stood at 0.38. In addition, in test [1] (100 μg/cm^2), the “15 min repellency ratio” value stood at 0.19, the “30 min repellency ratio” value is reported as 0.31 and the “1 hr repellency ratio” value is reported as 0.06.
As for `CC/C=C\C[C@H]1C(=O)CC[C@@H]1CC(=O)OC` [methyl jasmonate, Methyl (1R,2R)-3-Oxo-2-(2Z)-2-pentenyl-cyclopentaneacetate], in test [1], the “repellency EC50 (+TFA)” value is 6 μg/cm^2 and the “repellency EC50” value is listed as 39 μg/cm^2. Besides, in test [1] (repellency), the “synergist ratio SR” value came out at 6.5. In the test with female Ae. aegypti, the “MED values Female 10” value was 0.75 mg/cm^2, the “MED values Female 9” value is given as 0.75 mg/cm^2, the “MED Mean” value is reported as >1 mg/cm^2 and the “MED values Male 4” value is given as >1.5 mg/cm^2.
Consider `COCc1c(F)c(F)c(CO)c(F)c1F` [metofluthrin alcohol], for which, in test [1] (alcohol 100 μg/cm^2 mixed with GMR 134 at 2 μg/cm^2), the “synergism of repellency with GMR 134” value was “significantly synergized”.
Consider `CC1(C)C(C=C(Cl)Cl)C1C(=O)OCc1cccc(Oc2ccccc2)c1` (stereo not drawn) [permethrin, 3-phenoxybenzyl 3-(β,β-dichlorovinyl)-2,2-dimethylcyclopropanecarboxylate, reference compound], for which, in test [1], the “spatial repellency in screening” value was “inactive as vapor phase repellents”; the “effect of TFA … as mixture” value was “some spatial repellency”; the “repellency EC50 (+TFA)” value came out at 9.5 μg/cm^2; the “repellency … (words)” value is reported as “repellency was not observed”. Further, the “repellency EC50” value in test [1] is >1000 μg/cm^2. In test [1] (listed as Permethrin), the “repellency … (words)” value is “inactive”. In addition, the “synergist ratio SR” value in test [1] (repellency) is reported as >105. In addition, in the test on female Ae. aegypti, the “MED values Female 10” value came to 0.187 mg/cm^2, the “MED values Female 9” value is listed as 0.187 mg/cm^2, the “MED Mean” value stood at 0.187 mg/cm^2 and the “MED values Male 4” value turned out to be 0.187 mg/cm^2.
As to benzyloxybenzaldehyde, in test [1] (10 μg/cm^2), the “15 min repellency ratio” value was found to be 0.69, the “30 min repellency ratio” value stood at 0.69 and the “1 hr repellency ratio” value was found to be 0.63. Moreover, in test [1] (100 μg/cm^2), the “15 min repellency ratio” value amounted to 0.69, the “30 min repellency ratio” value is 0.81 and the “1 hr repellency ratio” value is 0.44.

These data come from patent publication US20220304307A1, “SYNERGISTIC MIXTURES FOR ARTHROPOD TOXICITY AND REPELLENCY” (University of Florida Research Foundation, Incorporated, priority 2019, published 2022).
